Reference: ChEMBL document CHEMBL1135264, “Thalidomide and its analogues as cyclooxygenase inhibitors” (Bioorg Med Chem Lett, 2002)
Active and inactive are the calls of the source. The rule behind the calls is not given here.

Target: T1, Prostaglandin G/H synthase 1 (Ovis aries) (UniProt P05979)
T1 sequence (whole entry): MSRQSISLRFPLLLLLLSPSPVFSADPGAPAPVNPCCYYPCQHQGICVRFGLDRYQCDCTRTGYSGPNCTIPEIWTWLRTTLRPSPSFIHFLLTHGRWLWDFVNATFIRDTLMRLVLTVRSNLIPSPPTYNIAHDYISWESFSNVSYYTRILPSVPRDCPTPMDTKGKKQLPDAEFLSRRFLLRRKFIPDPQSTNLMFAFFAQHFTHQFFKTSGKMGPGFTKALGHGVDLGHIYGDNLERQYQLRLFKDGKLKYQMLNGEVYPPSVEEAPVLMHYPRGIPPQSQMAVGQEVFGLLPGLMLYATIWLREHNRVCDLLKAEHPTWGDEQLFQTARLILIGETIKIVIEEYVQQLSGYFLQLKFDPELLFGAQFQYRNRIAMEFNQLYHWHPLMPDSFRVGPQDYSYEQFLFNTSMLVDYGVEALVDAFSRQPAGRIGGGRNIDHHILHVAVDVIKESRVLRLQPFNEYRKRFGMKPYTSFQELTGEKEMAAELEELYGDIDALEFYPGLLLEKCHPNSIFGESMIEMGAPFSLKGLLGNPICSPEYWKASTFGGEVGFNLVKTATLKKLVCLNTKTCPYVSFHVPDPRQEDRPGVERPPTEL
Test: Selective index (SI) which is the ratio of IC50 of Prostaglandin G/H synthase 1 / […]

Compared with Cc1cc(C)c(C)c(N2C(=O)c3ccccc3C2=O)c1C, Cc1cc(C)c(C)c(N2C(=O)c3ccccc3C2=O)c1 is lower in Ratio: 4.16 for the first, 4.05 for the second.

Compared with COc1cc(OC)nc(N2C(=O)Cc3ccccc3C2=O)n1, COc1cc(C)nc(N2C(=O)Cc3ccccc3C2=O)n1 is higher in Ratio: 0.38 for the first, 0.45 for the second.

Going from C[C@@]1(N2C(=O)c3cccc([N+](=O)[O-])c3C2=O)CCC(=O)NC1=O to C[C@@]1(N2C(=O)c3cccc(N)c3C2=O)CCC(=O)NC1=O, the Ratio rises from 0.23 to 11.1.

First: C[C@@]1(N2C(=O)c3ccc([N+](=O)[O-])cc3C2=O)CCC(=O)NC1=O
Second: C[C@@]1(N2C(=O)c3ccc(N)cc3C2=O)CCC(=O)NC1=O
The Ratio of the first is higher: 2.63 for the first, less than 0.07 for the second.

First: C[C@@]1(N2C(=O)c3ccccc3C2=O)CCC(=O)NC1=O
Second: O=C1CCN(N2C(=O)c3ccccc3C2=O)C(=O)N1
The Ratio of the first is higher: 2.56 for the first, 1.45 for the second.

Compared with O=C1NCCCC1N1C(=O)c2ccccc2C1=O (stereo unspecified), O=C1CCC(N2C(=O)c3ccccc3C2=O)C(=O)N1 (stereo unspecified) is lower in Ratio: 1.43 for the first, 1.23 for the second.

Compared with Cc1cc(C)nc(N2C(=O)Cc3ccccc3C2=O)n1, Cc1cc(C)nc(N2C(=O)Cc3ccccc3C2=O)c1 is higher in Ratio: 0.45 for the first, 0.51 for the second.

First: O=C1c2ccccc2C(=O)N1c1cnc(O)nc1O
Second: Cc1cc(C)cc(N2C(=O)c3ccccc3C2=O)c1
The Ratio of the first is higher: 7.69 for the first, 2.14 for the second.

First: O=C1c2ccccc2C(=O)N1CCn1ccc(=O)[nH]c1=O
Second: Cc1cc(C)cc(N2C(=O)Cc3ccccc3C2=O)c1
The Ratio of the first is higher: 0.44 for the first, 0.39 for the second.

Target: T2, Prostaglandin G/H synthase 1 (Ovis aries, UniProt P05979)
T2 sequence (P05979 whole entry): T1 sequence (whole entry)
Test: Inhibitory activity (RA1) against Prostaglandin G/H synthase 1 was calculated relative to aspirin

For C[C@]1(N2C(=O)c3ccccc3C2=O)CCC(=O)NC1=O, the IC50 was “Not Active”.

Target: T3, Prostaglandin G/H synthase 2 (Ovis aries, UniProt P79208)
T3 sequence (P79208 whole entry): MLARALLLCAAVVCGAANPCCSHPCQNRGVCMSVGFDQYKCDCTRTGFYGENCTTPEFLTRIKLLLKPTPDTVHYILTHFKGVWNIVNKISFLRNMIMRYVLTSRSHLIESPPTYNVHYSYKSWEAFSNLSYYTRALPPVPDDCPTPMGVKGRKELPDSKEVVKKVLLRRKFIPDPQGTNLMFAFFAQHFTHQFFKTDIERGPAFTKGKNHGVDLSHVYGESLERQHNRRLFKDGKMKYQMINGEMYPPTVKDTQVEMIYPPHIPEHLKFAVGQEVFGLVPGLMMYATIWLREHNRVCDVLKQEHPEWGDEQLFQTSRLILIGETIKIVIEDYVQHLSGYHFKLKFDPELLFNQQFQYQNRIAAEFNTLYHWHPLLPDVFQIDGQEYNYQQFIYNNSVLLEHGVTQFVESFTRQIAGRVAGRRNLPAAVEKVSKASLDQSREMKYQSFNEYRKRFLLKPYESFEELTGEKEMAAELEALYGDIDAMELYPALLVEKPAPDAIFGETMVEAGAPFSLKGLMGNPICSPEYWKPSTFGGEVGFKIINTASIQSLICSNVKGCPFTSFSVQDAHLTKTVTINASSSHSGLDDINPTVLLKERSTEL
Test: Inhibitory activity (RA2) against Prostaglandin G/H synthase 2 was calculated relative to aspirin

For C[C@]1(N2C(=O)c3ccccc3C2=O)CCC(=O)NC1=O, the IC50 was “Not Active”.

Target: T1, Prostaglandin G/H synthase 1 (Ovis aries)
Test: Selective index (SI) which is the ratio of IC50 of Prostaglandin G/H synthase 1 / […]; IN=Inactive

For C[C@]1(N2C(=O)c3ccccc3C2=O)CCC(=O)NC1=O, the Ratio was “inactive”.
